Here are results for nine compounds from US20200354426A1 (MEDIMMUNE LIMITED, priority 2016, published 2020).

“And” between values parts separate entries of the source, which are not always exact repeats. Identical values can stand only once. Numbered stars: 1 amine (or outer) side, 2 acyl side, 3 side chain; on linkers, the order of the positions; unused ones are H or OH. Side chains are listed from the residue outwards. Ends that are not written are not given here. Peptide text beside a SMILES is read from it. * marks the point of attachment. γGlu = O=C(O)[C@H](CCC(=O)[*:2])N[*:1]; Palmitoyl = CCCCCCCCCCCCCCCC(=O)*; Ahx = NCCCCCC(=O)O

Holding throughout (assay): cAMP activity assay in assay medium (assay 1)
Common to all, as to format: cell-based

The target in one experiment is T1, Human GIPr (Homo sapiens, UniProt P48546).
T1 construct: expressed in transfected cells
T1 sequence (P48546 22-466): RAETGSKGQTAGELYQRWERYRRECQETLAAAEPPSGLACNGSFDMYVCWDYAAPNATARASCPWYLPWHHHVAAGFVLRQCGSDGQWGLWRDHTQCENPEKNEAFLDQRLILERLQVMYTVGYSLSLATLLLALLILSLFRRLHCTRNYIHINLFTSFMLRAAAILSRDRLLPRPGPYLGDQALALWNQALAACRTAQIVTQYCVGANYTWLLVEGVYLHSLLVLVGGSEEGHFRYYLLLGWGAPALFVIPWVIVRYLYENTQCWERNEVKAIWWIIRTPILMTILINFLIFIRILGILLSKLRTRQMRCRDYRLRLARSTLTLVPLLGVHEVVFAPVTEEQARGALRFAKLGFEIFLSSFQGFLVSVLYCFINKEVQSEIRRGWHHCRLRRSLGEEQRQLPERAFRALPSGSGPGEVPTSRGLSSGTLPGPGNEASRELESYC
To be noted: assay medium; Table 4; read-out: hGIPR EC50. The source says: (§1) Biological Activity of Peptides in Cell-Based cAMP Activity Assay (Assay 1):
(§2) All sample dilutions were made in duplicate.

Another experiment concerns the target Human GLP1R (Homo sapiens, UniProt P43220). On the set-up: expressed in transfected cells. To be noted: assay medium; Table 4; read-out: hGLP1R EC50.
Description: as §1, §2

A further experiment deals with T2, Human GlucR (Homo sapiens, UniProt P47871).
T2 construct: expressed in transfected cells
T2 sequence (P47871 26-477): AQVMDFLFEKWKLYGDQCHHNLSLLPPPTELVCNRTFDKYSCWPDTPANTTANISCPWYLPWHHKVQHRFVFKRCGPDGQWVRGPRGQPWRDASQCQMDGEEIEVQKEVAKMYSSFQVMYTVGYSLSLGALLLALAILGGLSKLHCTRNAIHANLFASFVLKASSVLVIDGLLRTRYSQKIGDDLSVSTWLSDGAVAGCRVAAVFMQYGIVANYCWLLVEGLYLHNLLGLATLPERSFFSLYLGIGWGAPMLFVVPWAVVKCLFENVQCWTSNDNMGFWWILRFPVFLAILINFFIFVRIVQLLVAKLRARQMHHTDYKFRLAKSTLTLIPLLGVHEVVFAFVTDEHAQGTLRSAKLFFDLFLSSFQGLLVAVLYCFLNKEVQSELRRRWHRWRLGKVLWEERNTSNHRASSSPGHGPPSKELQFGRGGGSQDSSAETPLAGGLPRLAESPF
The following applies: assay medium; Table 4; read-out: hGlucR EC50.
Description: as §1, §2

Human GLP1R, sequence (P43220 24-463): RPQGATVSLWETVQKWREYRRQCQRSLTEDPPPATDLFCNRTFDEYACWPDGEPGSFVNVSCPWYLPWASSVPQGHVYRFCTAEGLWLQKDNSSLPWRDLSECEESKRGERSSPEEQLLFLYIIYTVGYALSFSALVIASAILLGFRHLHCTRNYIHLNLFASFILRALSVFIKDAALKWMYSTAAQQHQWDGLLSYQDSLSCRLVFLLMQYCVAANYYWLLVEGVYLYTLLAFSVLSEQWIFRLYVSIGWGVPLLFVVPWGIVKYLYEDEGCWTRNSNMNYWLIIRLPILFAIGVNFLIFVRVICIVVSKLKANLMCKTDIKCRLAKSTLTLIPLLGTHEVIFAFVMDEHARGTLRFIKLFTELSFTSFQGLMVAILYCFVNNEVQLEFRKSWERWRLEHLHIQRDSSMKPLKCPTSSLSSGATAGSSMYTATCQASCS

The EC50 is the concentration needed to bring the measured effect to its halfway point. For the compound `CCCCCCCCCCCCCCCC(=O)N[C@@H](CCC(=O)NCCCC[C@H](NC(=O)[C@H](Cc1ccc(O)cc1)NC(=O)[C@H](CCCCN)NC(=O)[C@H](CO)NC(=O)[C@H](Cc1ccc(O)cc1)NC(=O)[C@H](CC(=O)O)NC(=O)[C@H](CO)NC(=O)[C@@H](NC(=O)[C@H](Cc1ccccc1)NC(=O)[C@@H](NC(=O)CNC(=O)[C@H](CCC(N)=O)NC(=O)[C@H](CO)NC(=O)[C@@H](N)Cc1c[nH]cn1)[C@@H](C)O)[C@@H](C)O)C(=O)N[C@@H](CC(=O)O)C(=O)N[C@@H](CO)C(=O)N[C@@H](CCCNC(=N)N)C(=O)N[C@@H](CCCNC(=N)N)C(=O)N[C@@H](C)C(=O)N[C@@H](CCC(N)=O)C(=O)N[C@@H](CC(=O)O)C(=O)N[C@@H](Cc1ccccc1)C(=O)N[C@H](C(=O)N[C@@H](CCC(N)=O)C(=O)N[C@@H](Cc1c[nH]c2ccccc12)C(=O)N[C@@H](CC(C)C)C(=O)N[C@@H](CCC(=O)O)C(=O)N[C@@H](C)C(=O)NCC(=O)NCC(N)=O)C(C)C)C(=O)O` [g601] (H-HSQGTFTSDYSKYK([γGlu-Palmitoyl])DSRRAQDFVQWLEAGG-NH2; N-terminus assumed), the values for the EC50 at Human GIPr and at Human GLP1R were 74.1 nM and 0.0398 nM, respectively.

Take `CCCCCCCCCCCCCCCC(=O)NCCCCCC(=O)NCCCC[C@H](NC(=O)[C@H](CO)NC(=O)[C@H](CC(=O)O)NC(=O)[C@H](CC(C)C)NC(=O)[C@H](Cc1ccc(O)cc1)NC(=O)[C@H](CCC(=O)O)NC(=O)[C@H](CO)NC(=O)[C@H](Cc1ccc(O)cc1)NC(=O)[C@H](CC(=O)O)NC(=O)[C@H](CO)NC(=O)[C@@H](NC(=O)[C@H](Cc1ccccc1)NC(=O)[C@@H](NC(=O)CNC(=O)[C@H](CCC(N)=O)NC(=O)CNC(=O)[C@@H](N)Cc1c[nH]cn1)[C@@H](C)O)[C@@H](C)O)C(=O)N[C@@H](CCCNC(=N)N)C(=O)N[C@@H](C)C(=O)N[C@@H](C)C(=O)N[C@@H](CC(=O)O)C(=O)N[C@@H](Cc1ccccc1)C(=O)N[C@H](C(=O)N[C@@H](C)C(=O)N[C@@H](Cc1c[nH]c2ccccc12)C(=O)N[C@@H](CC(C)C)C(=O)N[C@@H](CCC(=O)O)C(=O)N[C@@H](CCCNC(=N)N)C(=O)NCC(=O)NCC(N)=O)C(C)C` [g683]: the EC50 at Human GIPr was determined as 126 nM; on Human GLP1R it was 0.0159 nM.

`CCCCCCCCCCCCCCCC(=O)N[C@@H](CCC(=O)NCCCC[C@H](NC(=O)[C@H](CO)NC(=O)[C@H](CC(=O)O)NC(=O)[C@H](CC(C)C)NC(=O)[C@H](Cc1ccc(O)cc1)NC(=O)[C@H](CCCCN)NC(=O)[C@H](CO)NC(=O)[C@H](Cc1ccc(O)cc1)NC(=O)[C@H](CC(=O)O)NC(=O)[C@H](CO)NC(=O)[C@@H](NC(=O)[C@H](Cc1ccccc1)NC(=O)[C@@H](NC(=O)CNC(=O)[C@H](CCC(N)=O)NC(=O)CNC(=O)[C@@H](N)Cc1c[nH]cn1)[C@@H](C)O)[C@@H](C)O)C(=O)N[C@@H](CCCNC(=N)N)C(=O)N[C@@H](C)C(=O)N[C@@H](C)C(=O)N[C@@H](CC(=O)O)C(=O)N[C@@H](Cc1ccccc1)C(=O)N[C@H](C(=O)N[C@@H](C)C(=O)N[C@@H](Cc1c[nH]c2ccccc12)C(=O)N[C@@H](CC(C)C)C(=O)N[C@H](C(=O)N[C@@H](C)C(=O)NCC(=O)NCC(N)=O)C(C)C)C(C)C)C(=O)O` [g736] (H-HGQGTFTSDYSKYLDSK([γGlu-Palmitoyl])RAADFVAWLVAGG-NH2; N-terminus assumed): the EC50 on Human GlucR is 0.919 nM and 0.92 nM; on Human GLP1R, 0.0854 nM.

Turning to `CCCCCCCCCCCCCCCC(=O)N[C@@H](CCC(=O)NCCCC[C@H](NC(=O)[C@H](CO)NC(=O)[C@H](CC(=O)O)NC(=O)[C@H](CC(C)C)NC(=O)[C@H](Cc1ccc(O)cc1)NC(=O)[C@H](CCCCN)NC(=O)[C@H](CO)NC(=O)[C@H](Cc1ccc(O)cc1)NC(=O)[C@H](CC(=O)O)NC(=O)[C@H](CO)NC(=O)[C@@H](NC(=O)[C@H](Cc1ccccc1)NC(=O)[C@@H](NC(=O)CNC(=O)[C@H](CCC(=O)O)NC(=O)CNC(=O)[C@@H](N)Cc1c[nH]cn1)[C@@H](C)O)[C@@H](C)O)C(=O)N[C@@H](CCCNC(=N)N)C(=O)N[C@@H](C)C(=O)N[C@@H](C)C(=O)N[C@@H](CC(=O)O)C(=O)N[C@@H](Cc1ccccc1)C(=O)N[C@H](C(=O)N[C@@H](C)C(=O)N[C@@H](Cc1c[nH]c2ccccc12)C(=O)N[C@@H](CC(C)C)C(=O)N[C@H](C(=O)N[C@@H](C)C(=O)NCC(=O)NCC(N)=O)C(C)C)C(C)C)C(=O)O` [g737] (H-HGEGTFTSDYSKYLDSK([γGlu-Palmitoyl])RAADFVAWLVAGG-NH2; N-terminus assumed), the half-maximal effective concentration (EC50) on Human GlucR is 734 nM; at Human GLP1R, 0.0814 nM.

For the compound `CCCCCCCCCCCCCCCC(=O)N[C@@H](CCC(=O)NCCCC[C@H](NC(=O)[C@H](C)NC(=O)[C@H](CCCNC(=N)N)NC(=O)[C@H](CCCNC(=N)N)NC(=O)[C@H](CO)NC(=O)[C@H](CC(=O)O)NC(=O)[C@H](CC(C)C)NC(=O)[C@H](Cc1ccc(O)cc1)NC(=O)[C@H](CCCCN)NC(=O)[C@H](CO)NC(=O)[C@H](Cc1ccc(O)cc1)NC(=O)[C@H](CC(=O)O)NC(=O)[C@H](CO)NC(=O)[C@@H](NC(=O)[C@H](Cc1ccccc1)NC(=O)[C@@H](NC(=O)CNC(=O)[C@H](CCC(N)=O)NC(=O)[C@H](CO)NC(=O)[C@@H](N)Cc1c[nH]cn1)[C@@H](C)O)[C@@H](C)O)C(=O)N[C@@H](CC(=O)O)C(=O)N[C@@H](Cc1ccccc1)C(=O)N[C@H](C(=O)N[C@@H](CCC(N)=O)C(=O)N[C@@H](Cc1c[nH]c2ccccc12)C(=O)N[C@@H](CC(C)C)C(=O)N[C@@H](CCC(=O)O)C(=O)N[C@@H](C)C(=O)NCC(=O)NCC(N)=O)C(C)C)C(=O)O` [g744], the 50% effective concentration (EC50) came out at 0.0392 nM at Human GlucR and 2.45 nM on Human GLP1R.

With `CCCCCCCCCCCCCCCC(=O)N[C@@H](CCC(=O)NCCCC[C@H](NC(=O)[C@@H](NC(=O)[C@H](Cc1ccccc1)NC(=O)[C@H](CC(=O)O)NC(=O)[C@H](CCC(N)=O)NC(=O)[C@H](C)NC(=O)[C@H](CCCNC(=N)N)NC(=O)[C@H](CCCNC(=N)N)NC(=O)[C@H](CO)NC(=O)[C@H](CC(=O)O)NC(=O)[C@H](CC(C)C)NC(=O)[C@H](Cc1ccc(O)cc1)NC(=O)[C@H](CCCCN)NC(=O)[C@H](CO)NC(=O)[C@H](Cc1ccc(O)cc1)NC(=O)[C@H](CC(=O)O)NC(=O)[C@H](CO)NC(=O)[C@@H](NC(=O)[C@H](Cc1ccccc1)NC(=O)[C@@H](NC(=O)CNC(=O)[C@H](CCC(N)=O)NC(=O)[C@H](CO)NC(=O)[C@@H](N)Cc1c[nH]cn1)[C@@H](C)O)[C@@H](C)O)C(C)C)C(=O)N[C@@H](Cc1c[nH]c2ccccc12)C(=O)N[C@@H](CC(C)C)C(=O)N[C@@H](CCC(=O)O)C(=O)N[C@@H](C)C(=O)NCC(=O)NCC(N)=O)C(=O)O` [g746], the EC50 worked out at 0.0354 nM at Human GlucR and 11.5 nM at Human GLP1R.

As for `CCCCCCCCCCCCCCCC(=O)NCCCCCC(=O)NCCCC[C@H](NC(=O)[C@H](C)NC(=O)[C@H](CCCNC(=N)N)NC(=O)[C@H](CCC(=O)O)NC(=O)[C@H](CO)NC(=O)[C@H](CC(=O)O)NC(=O)[C@H](CC(C)C)NC(=O)[C@H](Cc1ccc(O)cc1)NC(=O)[C@H](CCCCN)NC(=O)[C@H](CO)NC(=O)[C@H](Cc1ccc(O)cc1)NC(=O)[C@H](CC(=O)O)NC(=O)[C@H](CO)NC(=O)[C@@H](NC(=O)[C@H](Cc1ccccc1)NC(=O)[C@@H](NC(=O)CNC(=O)[C@H](CCC(N)=O)NC(=O)[C@H](CO)NC(=O)[C@@H](N)Cc1c[nH]cn1)[C@@H](C)O)[C@@H](C)O)C(=O)N[C@@H](CC(=O)O)C(=O)N[C@@H](Cc1ccccc1)C(=O)N[C@H](C(=O)N[C@@H](C)C(=O)N[C@@H](Cc1c[nH]c2ccccc12)C(=O)N[C@@H](CC(C)C)C(=O)N[C@@H](CCC(=O)O)C(=O)N[C@@H](CCCNC(=N)N)C(=O)NCC(=O)NCC(N)=O)C(C)C` [g787] (H-HSQGTFTSDYSKYLDSERAK([Ahx-Palmitoyl])DFVAWLERGG-NH2; N-terminus assumed), the results for the EC50 on Human GlucR and at Human GLP1R were 0.0436 nM and 6.65 nM, respectively.

On to `CCCCCCCCCCCCCCCC(=O)N[C@@H](CCC(=O)NCCCC[C@H](NC(=O)[C@H](Cc1ccc(O)cc1)NC(=O)[C@H](CCCNC(=N)N)NC(=O)[C@H](CO)NC(=O)[C@H](Cc1ccc(O)cc1)NC(=O)[C@H](CC(=O)O)NC(=O)[C@H](CO)NC(=O)[C@@H](NC(=O)[C@H](Cc1ccccc1)NC(=O)[C@@H](NC(=O)CNC(=O)[C@H](CCC(N)=O)NC(=O)[C@H](CO)NC(=O)[C@@H](N)Cc1c[nH]cn1)[C@@H](C)O)[C@@H](C)O)C(=O)N[C@@H](CC(=O)O)C(=O)N[C@@H](CO)C(=O)N[C@@H](CCC(=O)O)C(=O)N[C@@H](CCCNC(=N)N)C(=O)N[C@@H](C)C(=O)N[C@@H](CCCNC(=N)N)C(=O)N[C@@H](CC(=O)O)C(=O)N[C@@H](Cc1ccccc1)C(=O)N[C@H](C(=O)N[C@@H](C)C(=O)N[C@@H](Cc1c[nH]c2ccccc12)C(=O)N[C@@H](CC(C)C)C(=O)N[C@H](C(=O)N[C@@H](C)C(=O)NCC(=O)NCC(N)=O)C(C)C)C(C)C)C(=O)O` [g821], for which the half-maximal effective concentration (EC50) at Human GlucR is 0.00463 nM; on Human GLP1R it was 0.0558 nM.

On to “HSQGTFTSDYSKYLDSRRAQDFVQWLVRGGPSSGAPPPSK-NH2 [g319]”, for which the EC50 on Human GlucR was 0.0104 nM; at Human GLP1R it was 0.0361 nM.
